Results reported in patent US20120010075A1 (priority 2009, published 2012).

Tested on: Leptosphaeria nodorum (LEPTNO)
Assay: In vitro fungitoxicity of hydrazones with and without copper towards Leptosphaeria nodorum (Example 26)
Assay type: cell-based
Settings: Parastagonospora nodorum, 72 h, copper-minus medium; test compound Concn. 0.05 μg/mL; 72 h at 25° C.; read-out: LEPTNO % Inhn. Minus Copper Observed

Q: With `C/C(=N\NC(=O)c1ccc(C)cc1)c1cc(C(F)(F)F)ccc1O` [Example 530] as the compound, how does the inhibition of growth at 0.05 µg/mL read?
A: 9.8%

Q: Which inhibition of growth at 0.05 µg/mL does the source give for `C/C(=N\NC(=O)c1ccccc1Cl)c1cc(C(F)(F)F)ccc1O` [Example 531] here?
A: 0%

Q: With `C/C(=N\NC(=O)c1cccc(Cl)c1)c1cc(C(F)(F)F)ccc1O` [Example 532] as the compound, how does the inhibition of growth at 0.05 µg/mL read?
A: 4.9%

Q: For `C/C(=N\NC(=O)c1ccc(Cl)cc1)c1cc(C(F)(F)F)ccc1O` [Example 533], which inhibition of growth at 0.05 µg/mL is on record?
A: 6.2%

Q: Which inhibition of growth at 0.05 µg/mL does the source give for `COc1ccc(C(=O)N/N=C(\C)c2cc(C(F)(F)F)ccc2O)cc1` [Example 534] here?
A: 5.1%

Q: For `C/C(=N\NC(=O)c1ccc(Br)cc1)c1cc(C(F)(F)F)ccc1O` [Example 535], which inhibition of growth at 0.05 µg/mL is on record?
A: 10.1%

Q: For `C/C(=N\NC(=O)c1ccc(C(F)(F)F)cc1)c1cc(C(F)(F)F)ccc1O` [Example 536], which inhibition of growth at 0.05 µg/mL is on record?
A: 21.1%

Q: For `C/C(=N\NC(=O)c1ccccc1Br)c1cc(C(F)(F)F)ccc1O` [Example 537], which inhibition of growth at 0.05 µg/mL is on record?
A: 12.2%

Q: Which inhibition of growth at 0.05 µg/mL does the source give for `C/C(=N\NC(=O)c1ccccc1)c1cc(Br)cc(Br)c1O` [Example 539] here?
A: 1.6%

Q: For `C/C(=N\NC(=O)c1ccccc1C)c1cc(Br)cc(Br)c1O` [Example 540], which inhibition of growth at 0.05 µg/mL is on record?
A: 0%

Q: Which inhibition of growth at 0.05 µg/mL does the source give for `C/C(=N\NC(=O)c1cccc(C)c1)c1cc(Br)cc(Br)c1O` [Example 541] here?
A: 0%

Q: For `C/C(=N\NC(=O)c1ccc(C)cc1)c1cc(Br)cc(Br)c1O` [Example 542], which inhibition of growth at 0.05 µg/mL is on record?
A: 0%

Q: For `C/C(=N\NC(=O)c1ccccc1Cl)c1cc(Br)cc(Br)c1O` [Example 543], which inhibition of growth at 0.05 µg/mL is on record?
A: 1.3%

Q: For `C/C(=N\NC(=O)c1cccc(Cl)c1)c1cc(Br)cc(Br)c1O` [Example 544], which inhibition of growth at 0.05 µg/mL is on record?
A: 6.9%

Q: Which inhibition of growth at 0.05 µg/mL does the source give for `C/C(=N\NC(=O)c1ccc(Cl)cc1)c1cc(Br)cc(Br)c1O` [Example 545] here?
A: 19.6%

Same assay, conditions: copper-plus medium (CuCl2 10 μM); test compound Concn. 0.05 μg/mL; 72 h at 25° C.

Q: Which “LEPTNO % Inhn. Plus Copper Observed” value does the source give for `C/C(=N\NC(=O)c1ccc(C)cc1)c1cc(C(F)(F)F)ccc1O` [Example 530] here?
A: 96.2%

Q: With `C/C(=N\NC(=O)c1ccccc1Cl)c1cc(C(F)(F)F)ccc1O` [Example 531] as the compound, how does the “LEPTNO % Inhn. Plus Copper Observed” value read?
A: 97.3%

Q: For `C/C(=N\NC(=O)c1cccc(Cl)c1)c1cc(C(F)(F)F)ccc1O` [Example 532], which “LEPTNO % Inhn. Plus Copper Observed” value is on record?
A: 91.4%

Q: With `C/C(=N\NC(=O)c1ccc(Cl)cc1)c1cc(C(F)(F)F)ccc1O` [Example 533] as the compound, how does the “LEPTNO % Inhn. Plus Copper Observed” value read?
A: 97.0%

Q: Which “LEPTNO % Inhn. Plus Copper Observed” value does the source give for `COc1ccc(C(=O)N/N=C(\C)c2cc(C(F)(F)F)ccc2O)cc1` [Example 534] here?
A: 95.7%

Q: For `C/C(=N\NC(=O)c1ccc(Br)cc1)c1cc(C(F)(F)F)ccc1O` [Example 535], which “LEPTNO % Inhn. Plus Copper Observed” value is on record?
A: 97.7%

Q: With `C/C(=N\NC(=O)c1ccc(C(F)(F)F)cc1)c1cc(C(F)(F)F)ccc1O` [Example 536] as the compound, how does the “LEPTNO % Inhn. Plus Copper Observed” value read?
A: 93.4%

Q: With `C/C(=N\NC(=O)c1ccccc1Br)c1cc(C(F)(F)F)ccc1O` [Example 537] as the compound, how does the “LEPTNO % Inhn. Plus Copper Observed” value read?
A: 96.2%

Q: With `C/C(=N\NC(=O)c1ccccc1)c1cc(Br)cc(Br)c1O` [Example 539] as the compound, how does the “LEPTNO % Inhn. Plus Copper Observed” value read?
A: 98.0%

Q: For `C/C(=N\NC(=O)c1ccccc1C)c1cc(Br)cc(Br)c1O` [Example 540], which “LEPTNO % Inhn. Plus Copper Observed” value is on record?
A: 97.5%

Q: Which “LEPTNO % Inhn. Plus Copper Observed” value does the source give for `C/C(=N\NC(=O)c1cccc(C)c1)c1cc(Br)cc(Br)c1O` [Example 541] here?
A: 97.5%

Q: Which “LEPTNO % Inhn. Plus Copper Observed” value does the source give for `C/C(=N\NC(=O)c1ccc(C)cc1)c1cc(Br)cc(Br)c1O` [Example 542] here?
A: 95.8%

Q: With `C/C(=N\NC(=O)c1ccccc1Cl)c1cc(Br)cc(Br)c1O` [Example 543] as the compound, how does the “LEPTNO % Inhn. Plus Copper Observed” value read?
A: 93.9%

Q: Which “LEPTNO % Inhn. Plus Copper Observed” value does the source give for `C/C(=N\NC(=O)c1cccc(Cl)c1)c1cc(Br)cc(Br)c1O` [Example 544] here?
A: 97.6%

Q: For `C/C(=N\NC(=O)c1ccc(Cl)cc1)c1cc(Br)cc(Br)c1O` [Example 545], which “LEPTNO % Inhn. Plus Copper Observed” value is on record?
A: 97.9%

Tested on: not given
Assay: not given
Settings: not given

Q: Which melting point does the source give for `C/C(=N\NC(=O)c1ccc(C)cc1)c1cc(C(F)(F)F)ccc1O` [Example 530] here?
A: 225 to 229 °C

Q: With `C/C(=N\NC(=O)c1ccccc1Cl)c1cc(C(F)(F)F)ccc1O` [Example 531] as the compound, how does the melting point read?
A: 189 to 191 °C

Q: For `C/C(=N\NC(=O)c1cccc(Cl)c1)c1cc(C(F)(F)F)ccc1O` [Example 532], which melting point is on record?
A: 241 to 245 °C

Q: With `C/C(=N\NC(=O)c1ccc(Cl)cc1)c1cc(C(F)(F)F)ccc1O` [Example 533] as the compound, how does the melting point read?
A: 263 to 265 °C

Q: With `COc1ccc(C(=O)N/N=C(\C)c2cc(C(F)(F)F)ccc2O)cc1` [Example 534] as the compound, how does the melting point read?
A: 228 to 231 °C

Q: With `C/C(=N\NC(=O)c1ccc(Br)cc1)c1cc(C(F)(F)F)ccc1O` [Example 535] as the compound, how does the melting point read?
A: 256 to 259 °C

Q: For `C/C(=N\NC(=O)c1ccc(C(F)(F)F)cc1)c1cc(C(F)(F)F)ccc1O` [Example 536], which melting point is on record?
A: 228 to 234 °C

Q: Which melting point does the source give for `C/C(=N\NC(=O)c1ccccc1Br)c1cc(C(F)(F)F)ccc1O` [Example 537] here?
A: 192 to 200 °C

Q: Which melting point does the source give for `C/C(=N\NC(=O)c1ccccc1)c1cc(Br)cc(Br)c1O` [Example 539] here?
A: 242 to 245 °C

Q: Which melting point does the source give for `C/C(=N\NC(=O)c1ccccc1C)c1cc(Br)cc(Br)c1O` [Example 540] here?
A: 221 to 222 °C

Q: Which melting point does the source give for `C/C(=N\NC(=O)c1cccc(C)c1)c1cc(Br)cc(Br)c1O` [Example 541] here?
A: 236 to 238 °C

Q: For `C/C(=N\NC(=O)c1ccc(C)cc1)c1cc(Br)cc(Br)c1O` [Example 542], which melting point is on record?
A: 258 to 259 °C

Q: With `C/C(=N\NC(=O)c1ccccc1Cl)c1cc(Br)cc(Br)c1O` [Example 543] as the compound, how does the melting point read?
A: 207 to 209 °C

Q: With `C/C(=N\NC(=O)c1cccc(Cl)c1)c1cc(Br)cc(Br)c1O` [Example 544] as the compound, how does the melting point read?
A: 255 to 256 °C

Q: For `C/C(=N\NC(=O)c1ccc(Cl)cc1)c1cc(Br)cc(Br)c1O` [Example 545], which melting point is on record?
A: 255 to 258 °C

Tested on: Phytophthora infestans
Assay: not given
Assay type: in vivo, Phytophthora infestans on tomato
Settings: hydrazone 50 ppm with 50 μM CuCl2.2H2O, applied 24 h before inoculation; assessed 7 days after inoculation; tomato late blight

Q: With `C/C(=N\NC(=O)c1ccc(C)cc1)c1cc(C(F)(F)F)ccc1O` [Example 530] as the compound, how does the “TLB % Control” value read?
A: 59.0%

Q: Which “TLB % Control” value does the source give for `C/C(=N\NC(=O)c1ccccc1Cl)c1cc(C(F)(F)F)ccc1O` [Example 531] here?
A: 80.0%

Q: With `C/C(=N\NC(=O)c1cccc(Cl)c1)c1cc(C(F)(F)F)ccc1O` [Example 532] as the compound, how does the “TLB % Control” value read?
A: 56.0%

Q: Which “TLB % Control” value does the source give for `C/C(=N\NC(=O)c1ccc(Cl)cc1)c1cc(C(F)(F)F)ccc1O` [Example 533] here?
A: 34.0%

Q: With `COc1ccc(C(=O)N/N=C(\C)c2cc(C(F)(F)F)ccc2O)cc1` [Example 534] as the compound, how does the “TLB % Control” value read?
A: 61.0%

Q: Which “TLB % Control” value does the source give for `C/C(=N\NC(=O)c1ccc(Br)cc1)c1cc(C(F)(F)F)ccc1O` [Example 535] here?
A: 56.0%

Q: With `C/C(=N\NC(=O)c1ccc(C(F)(F)F)cc1)c1cc(C(F)(F)F)ccc1O` [Example 536] as the compound, how does the “TLB % Control” value read?
A: 24.0%

Q: For `C/C(=N\NC(=O)c1ccccc1Br)c1cc(C(F)(F)F)ccc1O` [Example 537], which “TLB % Control” value is on record?
A: 90.0%

Q: For `C/C(=N\NC(=O)c1ccccc1)c1cc(Br)cc(Br)c1O` [Example 539], which “TLB % Control” value is on record?
A: 100.0%

Q: For `C/C(=N\NC(=O)c1ccccc1C)c1cc(Br)cc(Br)c1O` [Example 540], which “TLB % Control” value is on record?
A: 95.0%

Q: With `C/C(=N\NC(=O)c1cccc(C)c1)c1cc(Br)cc(Br)c1O` [Example 541] as the compound, how does the “TLB % Control” value read?
A: 93.0%

Q: With `C/C(=N\NC(=O)c1ccc(C)cc1)c1cc(Br)cc(Br)c1O` [Example 542] as the compound, how does the “TLB % Control” value read?
A: 100.0%

Q: For `C/C(=N\NC(=O)c1ccccc1Cl)c1cc(Br)cc(Br)c1O` [Example 543], which “TLB % Control” value is on record?
A: 100.0%

Q: For `C/C(=N\NC(=O)c1cccc(Cl)c1)c1cc(Br)cc(Br)c1O` [Example 544], which “TLB % Control” value is on record?
A: 97.0%

Q: Which “TLB % Control” value does the source give for `C/C(=N\NC(=O)c1ccc(Cl)cc1)c1cc(Br)cc(Br)c1O` [Example 545] here?
A: 95.0%
